Laboratory results published in PubChem BioAssay (NCI).
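Each compound was tested at five concentrations against cells in 96-well plates for 48 hours. The concentration for 50% growth inhibition is given as GI50. The concentration for full growth arrest is given as TGI.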

Columns and labels:
Assay in all cases: NCI tumour cell line growth inhibition, 48 h
[1] = test system: RPMI-8226 leukemia
[2] = test system: SW-620 colon
[3] = test system: CAKI-1 renal
[4] = test system: SR leukemia
[5] = test system: SNB-75 CNS
[6] = test system: CCRF-CEM leukemia
[7] = test system: DU-145 prostate
[8] = test system: K-562 leukemia
[9] = test system: MOLT-4 leukemia
[10] = test system: SF-295 CNS

Compound | GI50 [1] [µM] | TGI [1] [µM] | GI50 [2] [µM] | TGI [2] [µM] | GI50 [3] [µM] | TGI [3] [µM] | GI50 [4] [µM] | TGI [4] [µM] | GI50 [5] [µM] | TGI [5] [µM] | GI50 [6] [µM] | TGI [6] [µM] | GI50 [7] [µM] | TGI [7] [µM] | GI50 [8] [µM] | TGI [8] [µM] | GI50 [9] [µM] | TGI [9] [µM] | TGI [10] [µM] | GI50 [10] [µM]
COc1cc(NC(=O)CCSc2nc3ccc(C)cc3c(=O)n2Cc2ccccc2)cc(OC)c1OC | > 100 | > 100 | > 100 | > 100 | > 100 | > 100 | > 100 | > 100 | 1.9 | 4.78 | > 100 | > 100 | 66 | > 100 | > 100 | > 100 | > 100 | > 100 | – | –
C[Si](C)(C)/C=C\CCO | – | > 100 | – | > 100 | – | – | – | > 100 | – | > 100 | – | > 100 | – | – | – | > 100 | – | > 100 | > 100 | –
C#Cc1nc2ccccc2c(=O)[nH]1 | 0.213 | 0.635 | 0.291 | 1.12 | 1.43 | 3.47 | 0.311 | 2.6 | 1.8 | 5.16 | 0.237 | 0.721 | 1.63 | 8.25 | 0.544 | 20.4 | 0.316 | 0.994 | 20.2 | 3.72
Cc1nc(Nc2ccccn2)sc1C(=O)/C=C/c1ccc(Cl)cc1 | 0.523 | > 100 | 0.445 | > 100 | 0.46 | 13.4 | 0.518 | > 100 | 0.296 | 24.7 | 0.445 | > 100 | 0.383 | > 71.5 | 0.395 | > 100 | 0.592 | > 100 | 23 | 0.308
CC(C)(C)C(=CS(=O)/N=C/c1ccccc1)C(C)(C)C (stereo unspecified) | – | 46.3 | – | > 100 | – | > 100 | – | 58.9 | – | 63.2 | – | 49.8 | – | – | – | 86.4 | – | 54.3 | – | –
Cn1cc(-c2ccc3nnc(Sc4ccc5ncccc5c4)n3n2)cn1 | 41.2 | > 100 | > 100 | > 100 | 40.8 | > 100 | 68.1 | > 100 | 26.1 | > 100 | 51.6 | > 100 | 73.3 | > 100 | 38.4 | > 100 | > 100 | > 100 | > 100 | 2.06
CC(C)OP(=O)(OC(C)C)/C(N)=N/Nc1ccc([N+](=O)[O-])cc1 | – | > 100 | – | > 100 | – | > 100 | – | > 100 | – | > 100 | – | > 100 | – | – | – | > 100 | – | > 100 | – | –
Cn1c(-c2ccc(/C=N/NC(=S)N/N=C/c3ccc(-c4c[n+]5ccsc5n4C)cc3)cc2)c[n+]2ccsc12 | – | > 100 | – | > 100 | – | – | – | > 100 | – | > 100 | – | > 100 | – | – | – | – | – | > 100 | > 100 | –
O=C(Nn1c(-c2ccccc2)nc2ccccc2c1=O)c1ccccc1O | – | > 100 | – | > 100 | – | – | – | > 100 | – | > 100 | – | > 100 | – | > 100 | – | > 100 | – | > 100 | > 100 | –
Cc1c(NC(=S)NC(=O)c2ccc([N+](=O)[O-])cc2)c(=O)n(-c2ccccc2)n1C | – | > 100 | – | > 100 | – | > 100 | – | > 100 | – | > 100 | – | > 100 | – | – | – | > 100 | – | > 100 | > 100 | –
COC(=O)CC(NC(=O)OCc1ccccc1)C(C(=O)OCc1ccccc1)C(C)(OC)OC (stereo unspecified) | – | 58.8 | – | > 100 | – | – | – | 53 | – | 64 | – | 65.4 | – | – | – | > 100 | – | 33 | > 100 | –
CSCCCNC(=O)c1ccc2c(c1)/C(=C/c1[nH]c(C)cc1C)C(=O)N2 | 1.68 | > 100 | 0.846 | > 100 | – | – | 0.476 | 61.4 | – | – | 4.36 | > 100 | 0.7 | > 100 | 2.01 | > 100 | 1.7 | > 100 | > 100 | 2.15
CC(=O)OCC(=O)[C@@]12OC(C)(C)O[C@@H]1C[C@H]1[C@@H]3CC(C=O)=C4C=C(OCCCl)CC[C@]4(C)[C@@]3(F)[C@@H](O)C[C@@]12C | – | > 100 | – | > 100 | – | – | – | > 100 | – | – | – | > 100 | – | – | – | > 100 | – | > 100 | 46.4 | –
COc1cc(C)c(C2NC(=O)c3ccccc3N2)cc1C (stereo unspecified) | – | – | – | > 100 | – | 16.2 | – | > 8.5 | – | 0.496 | – | 18.1 | – | 11.6 | – | > 52.2 | – | 35.8 | 22.4 | –
COc1ccc(CCc2cc(OC)cc(OC)c2)cc1 | – | 94.8 | – | > 67.3 | – | > 100 | – | > 100 | – | > 81.3 | – | 96.8 | – | – | – | 71.8 | – | 56.5 | > 100 | –
Cc1ccc(N=Nc2c(O)ccc3ccccc23)cc1 | – | > 100 | – | > 100 | – | > 100 | – | > 100 | – | > 100 | – | 75.8 | – | > 100 | – | – | – | > 100 | > 100 | –
COc1ccc(-c2nc(-c3nc4ccc(F)cc4[nH]3)c3ccccn23)cc1 | 2.86 | > 100 | 22.4 | > 100 | 12.1 | > 100 | 6.63 | > 100 | 3.4 | 12.4 | 4.39 | > 100 | 10.7 | 40.2 | 14 | > 100 | 3.83 | > 100 | – | –
O=S(=O)(NCn1ccc2ccccc21)c1ccccc1 | – | 47.2 | – | > 100 | – | – | – | > 74.3 | – | > 100 | – | > 100 | – | – | – | > 100 | – | > 100 | > 100 | –
